Measurements published in article PMC9228152, “New Amino Naphthoquinone Derivatives as Anti-Trypanosoma cruzi Agents Targeting Trypanothione Reductase” (Pharmaceutics, 2022).
Where two headings read alike, the source gives them in different places.

Key:
[1] = tested on: T. cruzi epimastigotes, NINOA strain; assay: Growth inhibition of T. cruzi epimastigotes, NINOA strain; format: cell-based; settings: Trypanosoma cruzi, 120 h, read-out: Epi NINOA IC50
Description: (§1) Epimastigotes from T. cruzi strains NINOA and INC-5 were cultured in BHI (brain heart infusion broth, 89%) axenic medium, as reported in [26], at an initial concentration of 1 × 10^6 parasites/mL, at 28 °C, supplemented with 10% foetal bovine serum and 1% sodium penicillin-streptomycin. […] On the last day, the absorbance of the cultures was measured and related to the control. All measurements were carried out in triplicate. No toxic effect was attributable to DMSO. Since parasite growth is exponential, the data were analysed according to a first order equation, and the respective growth constant (k), corresponding to the slope, was calculated for controls and parasites treated with different drug concentrations. From these measurements, percentage growth inhibition (%GI) and half-maximal inhibitory concentration (IC50) values were calculated.

[2] = tested on: T. cruzi trypomastigotes, INC-5 strain; assay: microbe, parasite or virus in culture; format: cell-based; settings: Trypanosoma cruzi, read-out: Trypo INC-5 LC50 (half-maximal lytic concentration)
Description: (§2) Those compounds with the lowest IC50 values in the epimastigote studies of each strain were evaluated in trypomastigotes. For this purpose, bloodstream trypomastigotes of INC-5 and NINOA strains were used for peritoneal injection into 6−8-week-old CD1 mice. The peak of parasitemia was achieved after 4–6 weeks, at which time parasitised blood samples were obtained by cardiac puncture using sodium heparin as an anticoagulant and diluted to a concentration of 1 × 10^6 trypomastigotes/mL. 10 µL of each of the dilutions of the study compounds and Bzn, with these being placed in a 96-well plate, and 90 µL of infected blood was added, providing a final volume of 100 µL per well. The microplates were incubated at 4 °C for 24 h, and concentrations of 20 µM, 10 µM, and 5 µM of each compound were considered in these experiments. Each evaluation was performed in triplicate. Wells with untreated blood trypomastigotes were used as a negative lysis control and Bzn as a positive control. Then, the degree of lysis of trypomastigotes was determined by their reduction in number using an optical microscope according to the Brener–Pizzi method. For this purpose, 5 μL of blood was placed between a slide and a 13 × 13 coverslip. Mobile trypomastigotes were counted in 15 microscope fields at 40× magnification. Quantification of the degree of lysis for each case was expressed as a percentage considering the number of viable trypomastigotes with respect to the negative control. The half-maximal lytic concentration (LC50) was determined by linear regression. The experiments were carried out in accordance with the recommendations and approval of the local Ethics and Research Committee (Approval number: ENCB/CEI/078/2020).

[3] = tested on: T. cruzi trypomastigotes, NINOA strain; assay: microbe, parasite or virus in culture; format: cell-based; settings: Trypanosoma cruzi, read-out: Trypo NINOA LC50 (half-maximal lytic concentration)
Description: as §2

[4] = tested on: T. cruzi epimastigotes, INC-5 strain; assay: Growth inhibition of T. cruzi epimastigotes, INC-5 strain; format: cell-based, Trypanosoma cruzi; settings: Trypanosoma cruzi, 120 h, read-out: Epi INC-5 IC50
Description: as §1

[5] = tested on: J774 murine macrophages; assay: Cytotoxicity on J774 macrophages (MTT); format: cell-based
Description: Cytotoxicity assays for the compounds selected for their trypanocidal activity were performed on J774 macrophage cells using the MTT method. For this purpose, 50,000 cells/well resuspended in RPMI medium and 2% foetal bovine serum were seeded in a 96-well plate and incubated for 24 h at 37 °C. […] After 24 h of incubation, the existing culture medium was replaced in the plate with fresh culture medium along with […] each of the compound dilutions (100 to 1.25 μM) and Bzn to a final volume of 100 µL per well. This plate was then incubated in 5% CO2 for 24 h at 37 °C. The controls used were cells with medium as a positive control and cells without culture medium as a negative control. After the 24 h incubation, the morphology of the macrophages was observed under a microscope and then the culture medium was removed again and the MTT solution (5 mg/mL) was added. After 1 h incubation at 37 °C, the absorbance at 570 nm was recorded on an Elisa Epoch reader. The following formula was used to calculate the % cytotoxicity: %cytotoxicity = (100 − (mean number of cells with treatment/cells without treatment) × 100).

[6] = epimastigotes, NINOA strain, five days, means of three independent experiments
[7] = bloodstream trypomastigotes, INC-5 strain, 24 h at 4 °C
[8] = bloodstream trypomastigotes, NINOA strain, 24 h at 4 °C
[9] = epimastigotes, INC-5 strain, five days, means of three independent experiments
[10] = Mus musculus, J774, 24 h, J774 macrophages, MTT, 24 h, read-out: J774 IC50

Row | Compound | IC50 [1, 6] [µM] | LC50 [2, 7] [µM] | LC50 [3, 8] [µM] | IC50 [4, 9] [µM] | also measured
1 | O=C1C=C(NCCN2CCOCC2)C(=O)c2ccccc21 [Compound 2a, 2-((2-Morpholinoethyl)amino)naphthalene-1,4-dione] | 1.1 ± 0.12 | > 100 | > 100 | 3.06 ± 0.01 | 
2 | O=C1C(Cl)=C(NCCN2CCOCC2)C(=O)c2ccccc21 [Compound 2b, 2-Chloro-3-((2-morpholinoethyl)amino)naphthalene-1,4-dione] | 1.1 ± 0.05 | > 100 | > 100 | 2.98 ± 0.2 | 
3 | O=C1C(Br)=C(NCCN2CCOCC2)C(=O)c2ccccc21 [Compound 2c, 2-Bromo-3-((2-morpholinoethyl)amino)naphthalene-1,4-dione] | 1.14 ± 0.06 | > 100 | > 100 | 2.22 ± 0.04 | 
4 | O=C1C=C(N2CCN(C3CCCC3)CC2)C(=O)c2ccccc21 [Compound 2d, 2-(4-Cyclopentylpiperazin-1-yl)naphthalene-1,4-dione] | 1.12 ± 0.04 | 87.3 ± 5.32 | > 100 | 5.04 ± 0.26 | 
5 | O=C1C(Cl)=C(N2CCN(C3CCCC3)CC2)C(=O)c2ccccc21 [Compound 2e, 2-Chloro-3-(4-cyclopentylpiperazin-1-yl)naphthalene-1,4-dione] | 0.43 ± 0.15 | > 100 | > 100 |  | 
6 | O=C1C(Br)=C(N2CCN(C3CCCC3)CC2)C(=O)c2ccccc21 [Compound 2f, 2-Bromo-3-(4-cyclopentylpiperazin-1-yl)naphthalene-1,4-dione] | 1.15 ± 0.09 | > 100 | 97.9 ± 2.13 | 1.46 ± 0.03 | 
7 | O=C1C=C(N2CCC(N3CCOCC3)CC2)C(=O)c2ccccc21 [Compound 2g, 2-(4-Morpholinopiperidin-1-yl)naphthalene-1,4-dione] | 7.05 ± 0.95 |  |  | 8.45 ± 0.35 | melting point: 151 to 153 °C
8 | O=C1C(Cl)=C(N2CCC(N3CCOCC3)CC2)C(=O)c2ccccc21 [Compound 2h, 2-Chloro-3-(4-morpholinopiperidin-1-yl)naphthalene-1,4-dione] | 6.4 ± 0.02 |  |  | 6.6 ± 0.08 | melting point: 145 to 146 °C
9 | O=C1C(Br)=C(N2CCC(N3CCOCC3)CC2)C(=O)c2ccccc21 [Compound 2i, 2-Bromo-3-(4-morpholinopiperidin-1-yl)naphthalene-1,4-dione] | 10.1 ± 0.05 |  |  | 1.74 ± 0.02 | melting point: 148 to 149 °C
10 | O=C(NC1CCN(C2=C(Cl)C(=O)c3ccccc3C2=O)CC1)c1ccccc1Br [Compound 7a, 2-Bromo-N-(1-(3-chloro-1,4-dioxo-1,4-dihydronaphthalen-2-yl)piperidin-4-yl)benzamide] | 6.41 ± 0.02 |  |  | 2.46 ± 0.08 | melting point: 197 to 198 °C
11 | O=C(NC1CCN(C2=C(Cl)C(=O)c3ccccc3C2=O)CC1)c1ccc([N+](=O)[O-])cc1 [Compound 7b, N-(1-(3-chloro-1,4-dioxo-1,4-dihydronaphthalen-2-yl)piperidin-4-yl)-4-nitrobenzamide] | 0.77 ± 0.21 | > 100 | 80.3 ± 4.03 | 2.23 ± 0.06 | 
12 | O=C(NC1CCN(C2=C(Cl)C(=O)c3ccccc3C2=O)CC1)c1cccc(Cl)c1 [Compound 7c, 3-Chloro-N-(1-(3-chloro-1,4-dioxo-1,4-dihydronaphthalen-2-yl)piperidin-4-yl)benzamide] | 0.52 ± 0.04 | > 100 | 68.4 ± 6.3 | 1.14 ± 0.07 | IC50 [5, 10]: ~25 µM
13 | O=C(NC1CCN(C2=C(Cl)C(=O)c3ccccc3C2=O)CC1)c1ccc(CCl)cc1 [Compound 7d, N-(1-(3-chloro-1,4-dioxo-1,4-dihydronaphthalen-2-yl)piperidin-4-yl)-4-(chloromethyl)benzamide] | 1.25 ± 0.06 | > 100 | > 100 | 2.3 ± 0.11 | 
14 | Cc1cc(C)cc(C(=O)NC2CCN(C3=C(Cl)C(=O)c4ccccc4C3=O)CC2)c1 [Compound 7e, N-(1-(3-chloro-1,4-dioxo-1,4-dihydronaphthalen-2-yl)piperidin-4-yl)-3,5-dimethylbenzamide] | 4.45 ± 0.06 |  |  | 5.6 ± 0.03 | melting point: 206 to 208 °C
15 | O=C(NC1CCN(C2=C(Cl)C(=O)c3ccccc3C2=O)CC1)c1cc([N+](=O)[O-])cc([N+](=O)[O-])c1 [Compound 7f, N-(1-(3-chloro-1,4-dioxo-1,4-dihydronaphthalen-2-yl)piperidin-4-yl)-3,5-dinitrobenzamide] |  |  |  |  | IC50 [1]: 0.99 ± 0.01 µM; LC50 ([2]; 24 h): 98.6 ± 8.2 µM; LC50 ([3]; 24 h): 70.9 ± 7.31 µM; IC50 ([5]; Mus musculus, J774, 24 h, read-out: J774 IC50, J774 macrophages, MTT, 24 h): ~25 µM; IC50 [4]: 1.84 ± 0.06 µM
16 | O=C(NC1CCN(C2=C(Cl)C(=O)c3ccccc3C2=O)CC1)c1cc(F)cc(Cl)c1 [Compound 7g, 3-Chloro-N-(1-(3-chloro-1,4-dioxo-1,4-dihydronaphthalen-2-yl)piperidin-4-yl)-5-fluorobenzamide] | 3.55 ± 0.02 | > 100 | > 100 | 2.57 ± 0.04 | 
17 | COc1ccc(C(=O)NC2CCN(C3=C(Cl)C(=O)c4ccccc4C3=O)CC2)cc1F [Compound 7h, N-(1-(3-chloro-1,4-dioxo-1,4-dihydronaphthalen-2-yl)piperidin-4-yl)-3-fluoro-4-methoxybenzamide] | 0.84 ± 0.11 | 94.7 ± 5.21 | 78.6 ± 3.91 | 1.35 ± 0.01 | IC50 ([5]; J774 macrophages, MTT, 24 h, read-out: J774 IC50): 22 µM; IC50 [5, 10]: ~25 µM
18 | O=C1C(Cl)=C(N2CCC(NC(=O)c3ccc(C(F)(F)F)cc3[N+](=O)[O-])CC2)C(=O)c2ccccc21 [Compound 7i, N-(1-(3-chloro-1,4-dioxo-1,4-dihydronaphthalen-2-yl)piperidin-4-yl)-2-nitro-4-(trifluoromethyl)benzamide] | 1.09 ± 0.01 | > 100 | 90.5 ± 6.58 | 3.35 ± 0.05 | 
